Assay results from patent publication US7510703B2, “UV-photoprotecting/sunscreen compositions comprising silane/siloxane derivatives of merocyanine sulfones” (L'Oreal, priority 2004, dated 2009).

Assay: UV absorption spectrum (λmax, E1%) of the UV filter compounds
Format: physicochemical
Conditions: for E1%: at main λmax; for E1% (shoulder): at shoulder; for λmax: main maximum

Row | E1% (UV (CH2Cl2)) | E1% (shoulder) (UV (CH2Cl2)) | λmax (UV (CH2Cl2)) | λmax (shoulder) (UV (CH2Cl2)) | SMILES | E1% (UV (Ethanol)) | E1% (shoulder) (UV (Ethanol)) | λmax (UV (Ethanol)) | λmax (shoulder) (UV (Ethanol))
1 |  |  |  |  | COC(=O)/C(=C\C=C\N(C)CCC[Si](C)(O[Si](C)(C)C)O[Si](C)(C)C)S(=O)(=O)c1ccc(C)cc1 [Example 1] | 1154 | 773 | 372 nm | 356 nm
2 | 1367 | 1298 | 366 nm | 358 nm | C#CCN(C)C=CC=C(C(=O)OCC)S(=O)(=O)c1ccccc1 [ethyl-5-[methyl(prop-2-ynyl)amino]-2-(phenylsulfonyl)penta-2,4-dienoate] |  |  |  | 
3 | 1346 | 1031 | 370 nm | 356 nm | C=CCN(C)C=CC=C(C(=O)OC)S(=O)(=O)c1ccc(C)cc1 [methyl-5-[allyl(methyl)amino]-2-[(4-methylphenyl)sulfonyl]penta-2,4-dienoate] |  |  |  | 
